Measurements as given in patent US20140309192A1, “MODULATORS OF THE G PROTEIN-COUPLED MAS RECEPTOR AND THE TREATMENT OF DISORDERS RELATED THERETO” (ARENA PHARMACEUTICALS, INC., priority 2011, published 2014).

What was measured:
[1] = tested on: isolated perfused rat hearts; assay: Global ischemia-reperfusion in Langendorff perfused rat hearts (coronary flow, arrhythmias)
Method: For ischemia-reperfusion experiments, Langendorff perfused rat hearts were equilibrated for 20 min and then baseline coronary flow was recorded for 10 min Thereafter, all hearts were subjected to 30 min of global ischemia by stopping perfusate flow, followed by 30 min of reperfusion with either vehicle (0.01% DMSO), Mas agonist AR234960 (1 μM) or Mas inverse agonist AR244555 (5 μM) added to the perfusion buffer. Electrocardiography was also continuously recorded during the observation period through electrodes attached directly to the surface of the ventricles to detect cardiac arrhythmias during reperfusion.

Male Sprague Dawley rats = assay: Rat model of transient cerebral ischemia/stroke; format: in vivo; settings: 3 mg/kg bolus i.v. 1 min prior to MCA occlusion or at the onset of reperfusion
Method: Rats were anesthetized with pentobarbital (70 mg/kg). Normal body temperature was maintained by placing the animals on heating pads. A midline neck incision was made and soft tissues were pulled apart, and the external carotid artery (ECA), and internal carotid artery (ICA) were exposed. […] An incision was made around the left hind leg area and exposing the femoral vein. A 30-mm length of 3-0 monofilament nylon suture coated with 0.1% poly-lysine was inserted into the right ICA lumen through a small incision at about 4-mm proximal to the carotid bifurcation. The filament was advanced 18-22 mm from the start of the carotid bifurcation to block the origin of the right middle cerebral artery (MCA) for the ischemia time designed. Reperfusion was obtained by pulling out the occluding filament at the end of the MCA. After occlusion the tissues around the neck were closed with 4-0 silk suture (Ethicon, 1677G). The skin around the neck was closed with metal clips and the cutting area was treated with iodine. At the end of the reperfusion period (e.g. 24 h) the rats were anesthetized with Nembutal (70 mg/kg) and the brains were removed. […] Whole area (WA) and infarct area (IA) were measured for each coronal section. Brain damage was assessed by IA/(IA+WA). […]

| Structure (SMILES) | frequency of prolonged ventricular arrhythmias during reperfusion ([1]; 1 μM, three out of seven hearts) | coronary flow during reperfusion compared to vehicle treated hearts ([1]; 30 min global ischemia, 30 min reperfusion, AR234960 1 μM, AR244555 5 μM in perfusate during reperfusion) | brain damage associated with transient ischemic injury (Male Sprague Dawley rats) |
| --- | --- | --- | --- |
| COc1cc([N+](=O)[O-])ccc1S(=O)(=O)N1CC(CN2CCN(c3ccccn3)CC2)C(c2cccc(F)c2)C1 (stereo not drawn) [AR234960] | 42.9% | trend toward decreased coronary flow |  |
| NC(=O)[C@H](CO)NCc1ccc(C(=O)Nc2ccc(Cl)cc2N2CCN(CCC(F)(F)F)CC2)c(F)c1F [Compound 170, (S)-4-((1-Amino-3-hydroxy-1-oxopropan-2-ylamino)methyl)-N-(4-chloro-2-(4-(3,3,3-trifluoropropyl)piperazin-1-yl)phenyl)-2,3-difluorobenzamide] |  |  | reduced brain damage |
